Source: patent US9809621B2, “Stable peptide-based PACE4 inhibitors” (SOCPRA SCIENCES SANTÉ ET HUMAINES S.E.C., priority 2011, dated 2017)
Where “and” joins values, the source holds several entries; their conditions need not be identical. Equal entries are not always repeated. Where two headings read alike, the source gives them in different places. Peptide text beside a SMILES is read from it. * marks the point of attachment. NH(4-amidinobenzyl) = N=C(N)c1ccc(CN*)cc1; X2 = N=C(N)NC/C=C/CN*

Columns and labels:
[1] = Fig. 4
Text: Table printed on a drawing sheet, Fig. 4
The patent's description of the figure: FIG. 4 illustrates plasmatic half-life curves measured for multi-Leu variants tested.
First reader's note: The table also serves as legend for the numbered curves of the adjacent plot; the unit (h) and ± errors stand in the cells, with decimal commas as printed.

[2] = biological target: T1, PACE4 (Homo sapiens, UniProt P29122); test: Inhibition constant (Ki) for PACE4; format: biochemical
T1 sequence (P29122 150-969): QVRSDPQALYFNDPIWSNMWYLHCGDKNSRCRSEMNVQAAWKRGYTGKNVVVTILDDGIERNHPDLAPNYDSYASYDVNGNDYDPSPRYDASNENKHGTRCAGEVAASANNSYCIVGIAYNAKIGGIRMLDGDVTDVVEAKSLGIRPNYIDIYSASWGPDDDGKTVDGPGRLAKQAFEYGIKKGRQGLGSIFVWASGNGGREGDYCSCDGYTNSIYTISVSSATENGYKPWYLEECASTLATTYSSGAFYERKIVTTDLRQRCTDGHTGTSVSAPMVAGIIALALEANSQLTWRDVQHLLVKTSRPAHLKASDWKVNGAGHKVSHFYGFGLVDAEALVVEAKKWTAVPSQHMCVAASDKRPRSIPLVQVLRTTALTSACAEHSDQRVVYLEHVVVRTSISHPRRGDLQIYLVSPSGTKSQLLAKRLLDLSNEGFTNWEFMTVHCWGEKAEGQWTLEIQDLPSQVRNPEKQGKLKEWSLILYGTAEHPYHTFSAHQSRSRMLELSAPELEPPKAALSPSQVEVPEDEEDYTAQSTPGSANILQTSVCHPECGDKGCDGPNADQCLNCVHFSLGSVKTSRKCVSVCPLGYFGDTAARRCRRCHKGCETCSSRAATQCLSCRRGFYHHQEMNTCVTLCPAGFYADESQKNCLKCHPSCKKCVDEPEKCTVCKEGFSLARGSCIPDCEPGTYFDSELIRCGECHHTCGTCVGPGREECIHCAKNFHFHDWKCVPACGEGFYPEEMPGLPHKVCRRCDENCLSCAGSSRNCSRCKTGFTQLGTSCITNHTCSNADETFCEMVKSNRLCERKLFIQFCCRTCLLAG

[3] = tested on: DU145 cells; conditions: MTT
[4] = Stability following incubation with DU145 cells; format: in vitro ADME, human; conditions: human, DU145 cells, Table 1, read-out: Stability (% remaining after 48 h)
Method: (§1) Multiple multi-Leu variants described in Table 1 were tested for their stability following incubation with DU145 cells, wherein their cellular stability and plasmatic half-life was measured.
(§2) Consequently, the multi-Leu peptide was further modified by the addition of amino acid analogues and/or with pseudo peptide bounds which increase the protection of the modified peptides from peptidase and protease degradation. Gains in stability were also measured in vitro in tumoral prostatic human cells (DU145). Increase in stability of the variants was also measured in vivo (FIG. 4).

[5] = tested on: DU145 cells; test: Stability following incubation with DU145 cells; format: in vitro ADME, human
Method: as §1, §2

[6] = Plasmatic half-life / degradation by plasmatic protease; format: in vitro ADME; conditions: for half-life: plasma
Method: as §1
Stabilisation strategy for multi-Leu variants was also assessed in presence of plasmatic protease. 8 variants protected at their N-terminal leucines were tested in order to establish their level of degradation since it is expected that N-terminal degradation will occur in absence of any modifications other than acetylation. Variants tested with azaβ3-leucine at each individual position and “click” bonds between the different leucines of the N-terminal part of the variants were protected against degradation (see FIG. 3 for modifications).

[7] = tested on: PC3 cells; test: MTT proliferation assay in PC3 cells; format: cell-based; conditions: FIG. 1B
[8] = biological target: furin (Homo sapiens, UniProt P09958); test: Inhibition constant (Ki) for furin; format: biochemical
[9] = tested on: LNCaP cells; test: Cell cycle analysis (DNA content, flow cytometry) of LNCaP cells; format: cell-based; conditions: for Cell cycle effect (in words): 100 μM or 200 μM, FIG. 11; for Cells in G0/G1 phase / Cells in G2/M phase / Cells in S phase / Cells in Sub-G1 (hypodiploid DNA content, apoptotic): 96 hours
Method: In order to obtain further support for the antiproliferation effects observed, a DNA content analysis was performed on LNCaP treated cells with 100 μM or 200 μM of ML-peptide and the modified analog […] (FIG. 11). […] Following a 200 μM treatment with the Ac-[D-Leu]LLLRVKR-NH2, a 10% increase in the G0/G1 population was observed along with an increased in cells with hypodiploid DNA content (sub-G1) proportions, which represent apoptotic cells.
To perform cell cycle analysis on LNCaP, 4×10^5 cells are seeded in 10 cm culture dish and grown for 24 hours without treatment. Cells are then treated with vehicle (0.1% DMSO) or with 100 μM or 200 μM of peptides Ac-LLLLRVKR-NH2 or Ac-[D-Leu]LLLRVKR-NH2. Treatments are carried out in complete medium (10% FBS) for a period of 96 hours and cell media is changed every 24 hours to offset peptide degradation. Cells are harvested using trypsin, washed once with PBS, resuspended in 0.5 mL PBS and fixed by drop wise addition of 1.5 mL of ice-cold ethanol. After a 30 minutes incubation at room temperature, cells are washed with PBS and DNA staining is performed in 20 mM HEPES pH 7.2, 0.16M NaCl, 1 mM EGTA buffer containing 10 μg/mL of RNAseA and 10 μg/mL of propidium iodine.
Flow cytometry is performed using a FACScan™ cytometer (Becton Dickinson, Mountain View, Calif.) equipped with a 15 mW argon ion laser tuned at 488 nm. A minimum of 10 000 gated events by sample are acquired. Forward and side scatter signals are used to establish the live gate to exclude debris and cell clumps and a second live gate is set using the FL3-A and FL3-W parameters of the doublet discrimination module (DDM), allowing single cell measurements. The percentages of cells in different phases of cell cycle are calculated by ModFit software (Verity Software House, Topsham, Me.).

[10] = tested on: LNCaP cells; conditions: MTT
[11] = tested on: LNCaP tumors; test: Intratumoral treatment of LNCaP tumors in immunosuppressed mice; conditions: LNCaP tumors, FIG. 9
[12] = read-out: IC50 (μM) DU145, Table 4, DU145 cells

Chain of furin (P09958 108-794): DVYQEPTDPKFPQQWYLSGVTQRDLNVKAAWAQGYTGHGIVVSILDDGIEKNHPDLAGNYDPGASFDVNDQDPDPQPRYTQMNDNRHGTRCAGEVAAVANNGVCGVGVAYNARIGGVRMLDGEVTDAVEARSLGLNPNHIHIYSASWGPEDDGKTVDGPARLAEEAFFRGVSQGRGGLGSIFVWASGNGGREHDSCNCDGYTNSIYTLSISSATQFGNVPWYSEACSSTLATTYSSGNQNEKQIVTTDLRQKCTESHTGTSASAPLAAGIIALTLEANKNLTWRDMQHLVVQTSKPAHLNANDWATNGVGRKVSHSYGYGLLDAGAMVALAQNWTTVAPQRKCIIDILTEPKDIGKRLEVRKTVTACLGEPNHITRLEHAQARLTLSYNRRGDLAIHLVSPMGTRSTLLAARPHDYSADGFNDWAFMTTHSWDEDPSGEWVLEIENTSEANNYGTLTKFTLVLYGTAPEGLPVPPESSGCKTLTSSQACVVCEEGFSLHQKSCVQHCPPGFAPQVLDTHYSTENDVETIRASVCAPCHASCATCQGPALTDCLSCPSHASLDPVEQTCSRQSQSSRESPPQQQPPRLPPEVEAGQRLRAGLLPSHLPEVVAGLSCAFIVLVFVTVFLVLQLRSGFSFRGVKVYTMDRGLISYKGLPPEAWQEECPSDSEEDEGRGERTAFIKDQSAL

Molecule	Ki ([2]; Ki for PACE4, Table 1)	Selectivity index PACE4/furin ([2]; Table 3)	IC50 [3, 12]	remaining at 48 h [4]	Stability (% remaining after 48 h) ([5]; Table 2)	half-life ([6]; Table 1)	half-life ([6]; Table 2)	Ki [8]	Cell cycle effect (in words) [9]	Cells in G0/G1 phase ([9]; 100 μM)	Cells in G2/M phase ([9]; 100 μM)	Cells in S phase ([9]; 100 μM)	Cells in Sub-G1 (hypodiploid DNA content, apoptotic) ([9]; 100 μM)	Cells in G0/G1 phase ([9]; 200 μM)	Cells in G2/M phase ([9]; 200 μM)	Cells in S phase ([9]; 200 μM)	Cells in Sub-G1 (hypodiploid DNA content, apoptotic) ([9]; 200 μM)	further results
Ac-LLLLRVKR-NH2 [6: ML]																		plasmatic half-life [1]: 2,1±0,2h
Ac-LLLLRVKR-NH2 [Multi-Leu (ML), Ac-LLLLRVKR-NH2, reference compound]	38 nM	19	187 ± 44 µM	56%	56%	2.1 ± 0.2 h	2.1 ± 0.2 h	722 nM	dose-dependant G0/G1 accumulation and S phase decrease	79.7 ± 0.4%	8.4 ± 0.6%	11.9 ± 0.2%	1.0 ± 0.0%	81.5 ± 0.0%	9.2 ± 0.1%	9.3 ± 0.1%	4.8 ± 1.7%	IC50 ([3]; read-out: IC50 cellular proliferation DU145, FIG. 1B/1C): 103 ± 29 µM; Inhibition of PC3 cell proliferation (in words) [7]: very poor inhibition; IC50 ([10]; read-out: IC50 cellular proliferation LNCaP, FIG. 1B/1D): 180 ± 57 µM
CC(=O)N[C@@H](CC(C)C)C(=O)N[C@@H](CC(C)C)C(=O)N[C@@H](CC(C)C)C(=O)N[C@@H](CC(C)C)C(=O)N[C@@H](CCCN=C(N)N)C(=O)N[C@H](C(=O)N[C@@H](CCCCN)C(=O)NCc1ccc(C(=N)N)cc1)C(C)C [ML-[AMBA]^P1, Ac-LLLLRVK-[AMBA]] (Ac-LLLLRVK-{NH(4-amidinobenzyl)})					≃80%													Stability (% remaining after 48 h) ([5]; Table 1): ≃80%
CC(=O)N[C@H](CC(C)C)C(=O)N[C@@H](CC(C)C)C(=O)N[C@@H](CC(C)C)C(=O)N[C@@H](CC(C)C)C(=O)N[C@@H](CCCNC(=N)N)C(=O)N[C@H](C(=O)N[C@@H](CCCCN)C(=O)N[C@@H](CCCNC(=N)N)C(N)=O)C(C)C [[D-Leu]^P8-ML, Ac-[D-Leu]-LLLRVKR-NH2]	52 nM and 33 nM	≈20	66 ± 26 µM	48%		~9 h	6.3 h	516 nM	dose-dependant G0/G1 accumulation and S phase decrease	79.3 ± 1.0%	8.9 ± 0.5%	11.8 ± 0.5%	0.4 ± 0.6%	83.4 ± 0.0%	8.3 ± 0.1%	8.4 ± 0.1%	11.8 ± 2.7%	Ki ([2]; Ki PACE4 (nM), Table 3): 3 nM; plasmatic half-life ([6]; Table 1): 6.3 h; Plasmatic concentration of PSA (in words) [11]: decreased; Cells with hypodiploid DNA content (sub-G1) proportions (in words) ([9]; 200 μM treatment): increased; Increase in the G0/G1 population ([9]; 200 μM treatment): 10%; IC50 ([10]; read-out: IC50 (μM) LNCaP, Table 4, LNCaP cells): 181 ± 59 µM
CC(=O)N[C@@H](CC(C)C)C(=O)N[C@@H](CC(C)C)C(=O)N[C@@H](CC(C)C)C(=O)N[C@@H](CC(C)C)C(=O)N[C@@H](CCCNC(=N)N)C(=O)N[C@H](C(=O)N[C@@H](CCCCN)C(=O)NC/C=C/CNC(=N)N)C(C)C [ML-[ΔR-CO2]^P1, Ac-LLLLRVK-[ΔR-COO]] (Ac-LLLLRVK-X2)		11.4		70%	70%													Selectivity for PACE4 over furin (time more selective) [2]: 11.4; Ki ([2]; Table 1, read-out: Ki for PACE4): 14 nM; Ki ([8]; Table 3, read-out: Ki Furin): 160 nM
